Consider one compound from US20220289685A1, “ANTIMALARIAL HEXAHYDROPYRIMIDINE ANALOGUES” (UCB BIOPHARMA SRL, priority 2019, published 2022).

SMILES strings stand for the structures. Counter-ions that a name gives are not always drawn.

In this assay the test system is Plasmodium falciparum 3D7 strain. Nature of the assay: P. falciparum 3D7 asexual blood stage assay (SYBR green readout). The settings on record: Plasmodium falciparum, 3D7, Erythrocyte, 72 h. The format is cell-based. Put shortly:
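P. falciparum 3D7 in A+ erythrocytes (5% haematocrit, 0.5% parasitaemia) exposed 72 h at 37 °C under 1% O2/3% CO2 to 20-point 1.5-fold titrations, 50,000–15 nM in 0.5% DMSO. SYBR green lysis overnight, fluorescence 485/528 nm; normalized to mefloquine and DMSO, EC50 from biphasic two-site fit.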

In turn, `C[C@@H]1C[C@H](N2C(=N)N[C@](C)(c3cccc(NC(=O)c4cncnc4)c3Cl)CC2=O)CCO1` (relative stereo) [Example 38, N-(2-Chloro-3-{(4S)-2-imino-4-methyl-1-[(2R*,4R*)-2-methyl-tetrahydropyran-4-yl]-6-oxo-hexahydropyrimidin-4-yl]phenyl)-pyrimidine-5-carboxamide trifluoroacetic acid salt] came in with an IC50 of 110 nM.

A word on the IC50: it is the concentration that inhibits the measured activity by half.
